Holding throughout (type): biochemical
The target in test [1] is T1, HsTPI (Homo sapiens, UniProt P60174, L109T/S106T/V102Y).
T1 construct: gene TPI1; source and expression not described; dimer
Nature of the test: activity with / without ornidazole after […] h.

Test [2] concerns the target T2, HsTPI (Homo sapiens, UniProt P60174).
T2 construct: gene TPI1; source and expression not described; dimer
Nature of the test: residual activity after […] min incubation, coupled assay.

The target in test [3] is T3, SyTPI (Synechocystis sp. PCC 6803, UniProt Q59994).
T3 construct: gene tpiA; full length, codon-optimised, E. coli BL21(DE3) delta-tpi; His tag cut by PreScission, extra Gly-Pro-His before Met1; homodimer 54 kDa
T3 sequence (Q59994 whole entry): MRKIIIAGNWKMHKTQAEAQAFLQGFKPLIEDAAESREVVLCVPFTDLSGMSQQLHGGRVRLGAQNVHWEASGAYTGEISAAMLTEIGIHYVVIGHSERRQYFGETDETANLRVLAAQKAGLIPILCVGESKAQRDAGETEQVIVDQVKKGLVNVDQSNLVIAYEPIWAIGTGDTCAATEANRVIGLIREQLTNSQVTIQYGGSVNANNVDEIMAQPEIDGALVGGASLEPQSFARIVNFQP
The description is as above.

Another test deals with T4, AtcTPI (Arabidopsis thaliana, UniProt P48491).
T4 construct: gene CTIMC; cytosolic isoform, purified dimer; expression not described here
T4 sequence (P48491 whole entry, canonical isoform): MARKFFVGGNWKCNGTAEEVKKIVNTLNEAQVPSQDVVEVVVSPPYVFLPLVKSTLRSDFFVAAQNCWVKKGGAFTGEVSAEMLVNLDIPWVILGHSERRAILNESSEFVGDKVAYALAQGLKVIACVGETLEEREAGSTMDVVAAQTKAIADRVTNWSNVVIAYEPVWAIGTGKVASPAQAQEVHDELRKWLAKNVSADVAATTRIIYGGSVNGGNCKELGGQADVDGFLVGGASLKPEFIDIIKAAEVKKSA
Nature of the test: residual activity after […] h incubation with reagent, coupled assay. The note with it: read-out: concentration giving 50% of original activity.

The target in test [4] is T3, SyTPI. Described as above. The note with it: read-out: % activity at 0.5 mM.
The target of another test is T5, AtpdTPI (Arabidopsis thaliana, UniProt Q9SKP6).
T5 construct: gene TIM; expression not described here
T5 sequence (Q9SKP6 60-315 limits assumed): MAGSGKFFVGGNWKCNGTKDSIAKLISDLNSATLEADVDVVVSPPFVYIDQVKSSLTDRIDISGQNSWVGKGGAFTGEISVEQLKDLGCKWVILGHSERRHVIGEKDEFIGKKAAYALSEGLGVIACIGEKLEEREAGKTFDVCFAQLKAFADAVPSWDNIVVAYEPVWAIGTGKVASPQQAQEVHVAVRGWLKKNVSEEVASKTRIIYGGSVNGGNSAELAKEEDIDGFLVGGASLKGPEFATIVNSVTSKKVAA
The test is described as above. The settings on record: read-out: concentration giving 50% of original activity.

As usually defined, the inhibition is the percentage by which the read-out fell short of the control. Higher therefore signals a strong effect.

T1 sequence (P60174 2-249 V102Y/S106T/L109T): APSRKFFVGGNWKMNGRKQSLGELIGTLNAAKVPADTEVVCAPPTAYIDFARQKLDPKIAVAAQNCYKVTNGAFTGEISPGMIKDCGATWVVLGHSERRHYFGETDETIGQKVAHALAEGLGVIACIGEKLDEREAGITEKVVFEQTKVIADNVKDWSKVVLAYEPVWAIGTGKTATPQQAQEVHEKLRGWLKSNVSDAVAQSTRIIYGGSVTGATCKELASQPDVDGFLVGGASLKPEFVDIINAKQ
T2 sequence (P60174 2-249): as the sequence (P60174 2-249 V102Y/S106T/L109T) above, with Y101V, T105S, T108L counted along it

As for `Cc1ncc([N+](=O)[O-])n1CC(O)CCl` (stereo not drawn) [ornidazole], the results for the activity at 50 µM at HsTPI [1] and on HsTPI [2] were around 60% and 90%, respectively. This compound yielded an inhibition at 50 µM on SyTPI [3] of around 80%.
For the compound `CSS(C)(=O)=O` [S-methyl methanethiosulfonate], the IC50 turned out to be 0.005 µM on AtcTPI and 18 µM at AtpdTPI. The activity at 500 µM on SyTPI [4] was determined as 50%.
